Consider two molecules from patent US11680047B2, “Enhanced erythropoiesis and iron metabolism” (FibroGen, Inc., priority 2003, dated 2023).

Experiment [1] deals with Transferrin Receptor (TFR2). The experiment is described as follows: Microarray gene expression in Hep3B cells: transferrin receptor 2. The format is cell-based, human. Particulars: 2 μM. Here is the method:
Hep3B cells (ATCC No. HB-8064) were grown in DMEM containing 8% fetal bovine serum. Hep3B cells were seeded into 6-well culture dishes at ˜500,000 cells per well. After 8 hours, the media was changed to DMEM containing 0.5% fetal bovine serum and the cells were incubated for an additional 16 hours. Compound B or compound D was added to the cells (2 μM final concentration) and the cells were incubated for various times. Control cells (no compound treatment, addition of DMSO alone) were harvested at 0, 6 and 48 hours. Harvested cells were assessed for cell viability (GUAVA), or added to RNA extraction buffer (RNeasy, Qiagen) and stored at −20° C. for subsequent RNA purification. Replicate microarrays were generated using RNA isolated from replicate experiments conducted on different days. Total RNA was isolated from cells using the RNeasy kit (Qiagen).
RNA was precipitated in 0.3 M sodium acetate (pH 5.2), 50 ng/ml glycogen, and 2.5 volumes of ethanol for one hour at −20° C. Samples were centrifuged and pellets were washed with cold 80% ethanol, dried, and resuspend in water. Double stranded cDNA was synthesized using a T7-(dT)24 first strand primer (Affymetrix, Inc., Santa Clara Calif.) and the SUPERSCRIPT CHOICE system (Invitrogen) according to the manufacturer's instructions. The final cDNA was extracted with an equal volume of 25:24:1 phenol:chloroform:isoamyl alcohol using a PHASE LOCK GEL insert (Brinkman, Inc., Westbury N.Y.). The aqueous phase was collected and cDNA was precipitated using 0.5 volumes of 7.5 M ammonium acetate and 2.5 volumes of ethanol. Alternatively, cDNA was purified using the GENECHIP sample cleanup module (Affymetrix) according to the manufacturer's instructions.
Biotin-labeled cRNA was synthesized from the cDNA in an in vitro […] (IVT) reaction using a BIOARRAY HighYield RNA transcript labeling kit (Enzo Diagnostics, Inc., Farmingdale N.Y.) according to the manufacturer's instructions. Final labeled product was purified and fragmented using the GENECHIP sample cleanup module (Affymetrix) according to the manufacturer's instructions.
Hybridization cocktail was prepared by bringing […] probe to […] in 1× hybridization buffer (100 mM MES, 1 M [Na^+], 20 mM EDTA, 0.01% Tween 20), 100 µg/ml herring sperm DNA, 500 µg/ml acetylated BSA, 0.03 nM contol oligo B2 (Affymetrix), and 1×GENECHIP eukaryotic hybridization control (Affymetrix). The cocktail was sequentially incubated at 99° C. for 5 minutes and 45° C. for 5 minutes, and then centrifuged for 5 minutes. The Human Genome U133A array (Affymetrix) was brought to room temperature and then prehybridized with 1× hybridization buffer at 45° C. for 10 minutes with rotation. The buffer was then replaced with […] hybridization cocktail and the array was hybridized for 16 hours at 45° C. at 60 rpm with counter balance. Following hybridization, arrays were washed once with 6×SSPE, 0.1% Tween 20, and then washed and stained using R-phycoerythrin-conjugated streptavidin (Molecular Probes, Eugene Oreg.), goat anti-streptavidin antibody (Vector Laboratories, Burlingame Calif.), and a GENECHIP Fluidics Station 400 instrument (Affymetrix) according to the manufacturer's micro_1v1 protocol (Affymetrix). Arrays were analyzed using a GENEARRAY scanner (Affymetrix) and Microarray Suite software (Affymetrix).
The Human Genome U133A array (Affymetrix) represents all sequences in the Human Unigene database build 133 (National Center for Biotechnology Information, Bethesda Md.), including approximately 14,500 well-characterized human genes.
RNA quality was monitored by capillary electrophoresis (Agilent Bioanalyzer). Hybridization cocktails were prepared as described (Affymetrix), and hybridized to Affymetrix human U133A arrays containing 22,283 probe sets. Array performance was analyzed with Affymetrix MicroArray Suite (MAS) software and individual probe sets were assigned “present”, “marginal, and “absent” calls according to software defaults. […]

In another experiment the test system is rat model of ACD. The experiment is described as follows: Rat model of ACD (PG-PS), Experimental Series 1. The format is in vivo. Particulars: anemic rats, 60 mg/kg PO. The text has this:
Anemia of chronic disease (ACD) is associated with various inflammatory conditions, including arthritis, neoplastic disease, and other disorders associated with chronic inflammation. A rat model of ACD was used to examine the effects of HIF stabilization using methods and compounds of the present invention on treating anemia associated with chronic disease. In this animal model, ACD is induced in rats by peptidoglycan-polysaccharide polymers. (See, e.g., Sartor et al. (1989) Infection and Immunity 57:1177-1185.) In this model, animals develop severe, acute anemia in the initial stages, followed by moderately severe chronic microcytic anemia in later stages.
Female Lewis rats of approximately 160 grams were challenged with PG-PS 10S (Lee Laboratories, 15 μg/gm body weight, intra-peritoneal). PG-PS 10S contains purified peptidoglycan-polysaccharide polymers isolated from the cell wall of Streptococcus pyogenes, Group A, D58 strain. Arthritis and anemia were allowed to develop for 35 days. On day 35, blood samples (approximately 400 μl) were taken from the tail vein under general anesthesia (Isoflurane) for CBC and reticulocyte counts (performed by Quality Clinical Labs). Animals with a spun hematocrit level at or above 45% were considered non-anemic and were removed from the study.
On day 35 following PG-PS injection, anemic animals received vehicle alone or were treated with compound A (60 mg/kg, PO) for two consecutive days per week for two weeks. Automated complete blood counts (CBC) were measured on day 35 (see above), 39, 42, and 49; serum iron levels were measured on day 49.

Consider `O=C(O)CNC(=O)c1ncc2cc(Oc3ccccc3)ccc2c1O` [Compound B, [(4-Hydroxy-7-phenoxy-isoquinoline-3-carbonyl)-amino]-acetic acid], for which the “Transferrin Receptor (TFR2) fold-increase in mRNA levels above control” value in experiment [1] (1 hr) is on record as 0.575 fold; in experiment [1] (3 hr), 0.558 fold; in experiment [1] (6 hr), 0.822 fold; in experiment [1] (12 hr), 1.253 fold; in experiment [1] (24 hr), 2.522 fold; in experiment [1] (48 hr), 4.169 fold.
On to `O=C(O)CNC(=O)c1nc(Cl)c2ccccc2c1O` [Compound A, [(1-Chloro-4-hydroxy-isoquinoline-3-carbonyl)-amino]-acetic acid], for which the hematocrit levels result is “approximately 37%” in the experiment on rat model of ACD (5 days after initiation of treatment) and “approximately 40%” with rat model of ACD (following a second dosing). The hemoglobin levels entry is recorded as “increased hemoglobin levels in anemic animals” in the experiment on rat model of ACD (as early as 5 days (day 39)) and “reaching a level comparable to control non-anemic animals” with rat model of ACD (day 49). Further, the Reticulocyte levels result in the experiment on rat model of ACD (day 39) is “approximately 10 % of red cell counts”. For the same molecule, in the experiment on rat model of ACD (from day 39), the “red blood cell count” value is recorded as “increased red blood cell count in anemic animals”. The mean corpuscular volume result in the experiment on rat model of ACD (from day 39, vs non-treated anemic animals) is “increased mean corpuscular volume”. For the same molecule, in the experiment on rat model of ACD (vs non-treated anemic animals), the “mean corpuscular hemoglobin levels” value is on record as “increased mean corpuscular hemoglobin levels”.
